Data: the NIST ThermoML archive (doi:10.1016/j.jct.2016.04.014)

Assay: xn = mol fraction of the nth substance listed
Details: Liquid, Vibrating tube method

CCCCCCCC [octane] + CCO
mass density [kg/m3]
Details	100 kPa	500 kPa	5000 kPa	10000 kPa	15000 kPa	20000 kPa	25000 kPa	30000 kPa	35000 kPa	40000 kPa
293.15 K, x1 = 0.2492	743.9	744.3	748.2	752.3	756.2	759.9	763.4	766.8	770	773.2
293.15 K, x1 = 0.4999	722.3	722.6	726.5	730.6	734.4	738.1	741.6	744.9	748.1	751.2
293.15 K, x1 = 0.7503	709.6	709.9	713.7	717.7	721.5	725.1	728.6	731.9	735	738.1
303.15 K, x1 = 0.2492	735.3	735.7	739.8	744.2	748.3	752.2	755.9	759.5	762.9	766.2
303.15 K, x1 = 0.4999	713.7	714.1	718.3	722.6	726.7	730.6	734.2	737.7	741.1	744.3
303.15 K, x1 = 0.7503	701.2	701.5	705.6	709.9	713.9	717.8	721.4	724.9	728.2	731.4
313.15 K, x1 = 0.2492	726.5	726.9	731.3	736	740.4	744.5	748.4	752.1	755.7	759.1
313.15 K, x1 = 0.4999	705	705.4	709.8	714.5	718.8	722.9	726.8	730.5	734	737.4
313.15 K, x1 = 0.7503	692.6	693	697.4	702	706.3	710.3	714.1	717.8	721.2	724.6
323.15 K, x1 = 0.2492	717.4	717.9	722.6	727.6	732.2	736.6	740.7	744.6	748.4	752
323.15 K, x1 = 0.4999	696	696.4	701.2	706.1	710.8	715.1	719.2	723.1	726.8	730.4
323.15 K, x1 = 0.7503	683.8	684.2	688.9	693.8	698.4	702.7	706.8	710.6	714.2	717.8
333.15 K, x1 = 0.2492	708.2	708.6	713.7	719.1	724	728.6	733	737.1	741	744.8
333.15 K, x1 = 0.4999	686.8	687.3	692.4	697.7	702.7	707.3	711.6	715.7	719.6	723.4
333.15 K, x1 = 0.7503	674.8	675.3	680.4	685.6	690.5	695.1	699.3	703.4	707.2	710.9
353.15 K, x1 = 0.2492	–	689	695	701.1	706.8	712	716.9	721.5	725.8	730
353.15 K, x1 = 0.4999	–	667.9	674	680.2	685.8	691.1	695.9	700.5	704.8	709
353.15 K, x1 = 0.7503	–	656.6	662.6	668.7	674.3	679.5	684.3	688.7	693	697.1
373.15 K, x1 = 0.2492	–	667.6	674.8	682	688.6	694.6	700.1	705.2	710	714.6
373.15 K, x1 = 0.4999	–	647.2	654.4	661.7	668.3	674.3	679.8	684.9	689.7	694.3
373.15 K, x1 = 0.7503	–	637	644.1	651.2	657.7	663.6	669	674	678.7	683.2
